Experimental findings from the supplement of paper PMC11061612 are described below.

Common to all, as to assay: Bliss excess, mean over the matrix (fraction); higher = more synergy
One assay deals with SK-N-FI (Neuroblastoma). The essentials:
(§1)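 After 24 hours at 37°C and 5% CO2 in 1536-well plates, cells in DMEM/F12 or RPMI plus 10% FBS received two-drug dose matrices for 72 hours. Viability came from CellTiter-Glo 2.0 luminescence and was scaled as inhibition, anchored at 0 by vehicle wells and at 1 by blank wells. Combination Emax is taken as the second-highest inhibition in the matrix, and Bliss excess as the observed combination effect less EA + EB − EA·EB, with EA and EB the single-agent effects.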

Assay [1] concerns SW1990 (Pancreatic Carcinoma). The essentials: as §1
Assay [2] relates to DOV13 (Ovarian Carcinoma). The essentials: as §1
For assay [3], the system named is SNU-C5 (Colorectal Carcinoma). The essentials: as §1
The subject of assay [4] is TE-5 (Esophageal Squamous Cell Carcinoma). In outline: as §1
In another assay the test system is IGR-1 (Melanoma). In outline:
as §1

The test system of assay [5] is G-292-Clone-A141B1 (Osteosarcoma). In outline: as §1
For assay [6], the system named is JiyoyeP-2003 (Burkitt's Lymphoma). The essentials:
as §1

For assay [7], the system named is MFH-ino (Other Solid Carcinomas). In outline:
as §1

In another assay the test system is CAL-78 (Chondrosarcoma). The essentials: as §1
Assay [8] has as its system NALM-6 (B-Lymphoblastic Leukemia). The essentials: as §1
Assay [9] deals with TGBC24TKB (Biliary Tract Carcinoma). In outline: as §1
The next assay relates to NCI-H2369 (Mesothelioma). In outline:
as §1

The subject of assay [10] is EM-2 (Chronic Myelogenous Leukemia). The essentials: as §1
The subject of assay [11] is HPAC (Pancreatic Carcinoma). The essentials: as §1
Assay [12] relates to NCI-H1793 (Lung Adenocarcinoma). In outline: as §1
In assay [13] the test system is CTV-1 (T-Lymphoblastic Leukemia). In outline:
as §1

In assay [14] the test system is MDA-MB-231 (Breast Carcinoma). In outline:
as §1

The subject of assay [15] is LU-99A (Non-Small Cell Lung Carcinoma). In outline: as §1
For assay [16], the system named is NCI-H1781 (Lung Adenocarcinoma). In outline: as §1

For `CN(CCO)CC[C@H](CSc1ccccc1)Nc1ccc(S(=O)(=O)NC(=O)c2ccc(N3CCC([C@@H](O)c4ccccc4-c4ccc(Cl)cc4)CC3)cc2)cc1S(=O)(=O)C(F)(F)F` [AZD4320] + C1CN(CCC1(C(=O)N[C@@H](CCO)C2=CC=C(C=C2)Cl)N)C3=NC=NC4=C3C=CN4 [Capivasertib] (first compound max 1 µM, 7x7, partner max 3 µM), the Bliss excess with SK-N-FI (Neuroblastoma) was -0.0158; in assay [1] it was -0.049; in [2], 0.0131; in [3], -0.067; in assay [4], -0.0068; with IGR-1 (Melanoma), -0.0557. Besides, the Bliss excess in assay [5] was -0.0041; in assay [6], 0.0157; in [7], -0.0527; in the assay with CAL-78 (Chondrosarcoma) it was -0.0482; in [8], 0.0091; in assay [9] it was 0.0015. The Bliss excess with NCI-H2369 (Mesothelioma) is 0.0332; in [10] it was 0.0261; in assay [11], -0.0571; in assay [12] it was -0.0106; in [13], -0.0365; in assay [14], -0.0517. For the same molecule, the Bliss excess is -0.0693 in [15] and -0.0313 in assay [16].
Regarding `CC1(C)CCC(CN2CCN(c3ccc(C(=O)NS(=O)(=O)c4ccc(NCC5CCOCC5)c([N+](=O)[O-])c4)c(Oc4cnc5[nH]ccc5c4)c3)CC2)=C(c2ccc(Cl)cc2)C1` [Venetoclax] + Cc1cc2ncnn2cc1Nc1ncc2c(n1)n(C1CCOCC1)c(=O)n2C [AZD7648] (first compound max 1 µM, 7x7, partner max 10 µM), the Bliss excess in the assay on SK-N-FI (Neuroblastoma) was 0.0047; in assay [1], -0.0426; in [2], 0.0659; in assay [3] it was -0.0233; in assay [4], -0.0382; with IGR-1 (Melanoma), -0.0287. Further, the Bliss excess in assay [5] is -0.037; in assay [6], -0.0604; in assay [7] it was -0.0328; in the assay with CAL-78 (Chondrosarcoma), 0.0236; in [8] it was -0.0184; in assay [9] it was 0.0423. Besides, the Bliss excess in the assay on NCI-H2369 (Mesothelioma) was -0.0273; in assay [10] it was -0.0135; in [11], 0.0142; in assay [12], -0.042; in assay [13] it was -0.0249; in [14], 0.0192. Further, the Bliss excess in assay [15] was -0.0437; in [16] it was -0.0274.
For `COc1cccc2c1C(=O)c1c(O)c3c(c(O)c1C2=O)C[C@@](O)(C(=O)CO)C[C@@H]3O[C@H]1C[C@H](N)[C@H](O)[C@H](C)O1` [Doxorubicin] + Cc1cc2ncnn2cc1Nc1ncc2c(n1)n(C1CCOCC1)c(=O)n2C [AZD7648] (first compound max 1 µM, 7x7, partner max 10 µM), the Bliss excess in the assay with SK-N-FI (Neuroblastoma) was -0.0158; in assay [1], -0.0224; in assay [2], 0.0218; in assay [3], 0.0378; in assay [4], -0.0229; with IGR-1 (Melanoma), 0.0132. Besides, the Bliss excess was -0.0023 in [5]; 0.094 in assay [6]; 0.0216 in assay [7]; 0.0132 in the assay on CAL-78 (Chondrosarcoma); 0.139 in assay [8]; -0.002 in assay [9]. In addition, the Bliss excess with NCI-H2369 (Mesothelioma) was 0.029; in assay [10] it was 0.0536; in assay [11], 0.0275; in assay [12] it was 0.0117; in assay [13], 0.119; in assay [14], -0.0124. Besides, the results for the Bliss excess in assay [15] and in [16] were 0.0269 and 0.0578, respectively.
In the case of `CN(CCO)CC[C@H](CSc1ccccc1)Nc1ccc(S(=O)(=O)NC(=O)c2ccc(N3CCC([C@@H](O)c4ccccc4-c4ccc(Cl)cc4)CC3)cc2)cc1S(=O)(=O)C(F)(F)F` [AZD4320] + Cc1cc2ncnn2cc1Nc1ncc2c(n1)n(C1CCOCC1)c(=O)n2C [AZD7648] (first compound max 1 µM, 7x7, partner max 10 µM), the Bliss excess in the assay on SK-N-FI (Neuroblastoma) was -0.0203; in assay [1], -0.0418; in assay [2] it was -0.0588; in assay [3] it was -0.0257; in assay [4], -0.033; in the assay on IGR-1 (Melanoma) it was -0.0137. For the same molecule, the Bliss excess was -0.032 in assay [5]; -0.0322 in assay [6]; -0.0545 in assay [7]; -0.0388 in the assay on CAL-78 (Chondrosarcoma); -0.0061 in [8]; 0.0059 in [9]. The Bliss excess in the assay with NCI-H2369 (Mesothelioma) is -0.0411; in [10], 0.0184; in [11], -0.0292; in [12], 0.0025; in assay [13], 0.001; in assay [14] it was -0.0082. Further, the results for the Bliss excess in assay [15] and in assay [16] were -0.0522 and -0.0388, respectively.
Turning to `CCc1c2c(nc3ccc(O)cc13)-c1cc3c(c(=O)n1C2)COC(=O)[C@]3(O)CC` [SN-38] + CN(C)CCCOc1ccc(-c2ccc3ncc4c(c3c2)n(C2CCOCC2)c(=O)n4C)cn1 [AZD0156] (first compound max 0.3 µM, 7x7, partner max 1 µM), the Bliss excess with SK-N-FI (Neuroblastoma) was 0.0628; in [1] it was -0.0091; in [2], -0.0192; in assay [3], 0.036; in [4] it was 0.0124; in the assay with IGR-1 (Melanoma), 0.0179. Moreover, the Bliss excess is -0.0508 in assay [5]; 0.0406 in [6]; -0.0032 in [7]; -0.0547 with CAL-78 (Chondrosarcoma); 0.0336 in assay [8]; 0.0476 in assay [9]. For the same molecule, the Bliss excess is -0.0001 in the assay with NCI-H2369 (Mesothelioma); 0.0812 in [10]; 0.0584 in [11]; -0.026 in assay [12]; 0.0414 in assay [13]; 0.0937 in [14]. For the same molecule, the values for the Bliss excess in [15] and in assay [16] were 0.0406 and 0.0554, respectively.
For `CC(=O)c1c(C)c2cnc(Nc3ccc(N4CCNCC4)cn3)nc2n(C2CCCC2)c1=O` [Palbociclib] + CC1(C)CCC(CN2CCN(c3ccc(C(=O)NS(=O)(=O)c4ccc(NCC5CCOCC5)c([N+](=O)[O-])c4)c(Oc4cnc5[nH]ccc5c4)c3)CC2)=C(c2ccc(Cl)cc2)C1 [Venetoclax] (first compound max 10 µM, 7x7, partner max 1 µM), the Bliss excess was 0.0104 in the assay on SK-N-FI (Neuroblastoma); -0.0239 in assay [1]; 0.0125 in assay [2]; -0.017 in assay [3]; -0.0558 in assay [4]; -0.0267 in the assay with IGR-1 (Melanoma). The Bliss excess in assay [5] was -0.0368; in assay [6], 0.0975; in assay [7] it was -0.0576; in the assay with CAL-78 (Chondrosarcoma), -0.0333; in [8] it was 0.0132; in assay [9], -0.0121. The Bliss excess is -0.0543 in the assay on NCI-H2369 (Mesothelioma); 0.0262 in assay [10]; -0.0619 in assay [11]; -0.0136 in assay [12]; 0.0415 in assay [13]; -0.0242 in [14]. For the same molecule, the results for the Bliss excess in assay [15] and in assay [16] were 0.048 and -0.045, respectively.
Turning to `C=CCn1c(=O)c2cnc(Nc3ccc(N4CCN(C)CC4)cc3)nc2n1-c1cccc(C(C)(C)O)n1` [AZD1775] + O=C(c1cc(Cc2n[nH]c(=O)c3ccccc23)ccc1F)N1CCN(C(=O)C2CC2)CC1 [Olaparib] (first compound max 1 µM, partner max 10 µM), the Bliss excess in the assay with SK-N-FI (Neuroblastoma) is -0.0569; in [1] it was -0.0697; in assay [2] it was -0.0389; in [3], -0.0485; in [4], -0.0488; in the assay with IGR-1 (Melanoma) it was 0.0054. The Bliss excess is 0.0161 in assay [5]; -0.0086 in assay [6]; -0.0128 in [7]; -0.0833 with CAL-78 (Chondrosarcoma); -0.0045 in assay [8]; -0.0499 in [9]. Further, the Bliss excess is -0.084 in the assay with NCI-H2369 (Mesothelioma); -0.0243 in [10]; 0.0077 in assay [11]; -0.0145 in assay [12]; -0.0239 in assay [13]; -0.0267 in [14]. Besides, the figures for the Bliss excess in [15] and in [16] were -0.0603 and -0.0451, respectively.
